Source: US20170197996A1, “Cholinesterase Inhibitors” (priority 2012, published 2017)

Test system: acetylcholinesterase
Type: in vivo, rat
Conditions: Trials C, D; 0.030 mg/Kg dose 10 min prior to tracer; FIG. 11, FIG. 12 vs FIG. 8

With CCOP(=O)(OCC)Oc1ccc([N+](=O)[O-])cc1 [paraoxon] the “reduction of tracer [^18F]-6 SUV radioactivity signals across all brain ROIs” value was “significant reduction of SUV radioactivity signals”.
